Reference: PubChem BioAssay (NCI)
Where “and” joins values, the source holds several entries; their conditions need not be identical. Equal values may be shown once.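 Following 48 hours of exposure in 96-well plates, responses at five concentrations were used to interpolate endpoints linearly. GI50 = concentration required for 50% inhibition of growth. TGI: total growth inhibition.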

Tests used:
Test in all cases: NCI anticancer screen, dose series, 48 h
A498 renal = test system: A498 renal
SF-539 CNS = test system: SF-539 CNS
SNB-75 CNS = test system: SNB-75 CNS
K-562 leukemia = test system: K-562 leukemia
SR leukemia = test system: SR leukemia
MCF7 breast = test system: MCF7 breast
OVCAR-4 ovarian = test system: OVCAR-4 ovarian
COLO 205 colon = test system: COLO 205 colon
MDA-MB-435 = test system: MDA-MB-435
NCI-H460 lung = test system: NCI-H460 lung

SMILES | GI50 (A498 renal) | TGI (A498 renal) | GI50 (SF-539 CNS) | TGI (SF-539 CNS) | GI50 (SNB-75 CNS) | TGI (SNB-75 CNS) | GI50 (K-562 leukemia) | TGI (K-562 leukemia) | GI50 (SR leukemia) | TGI (SR leukemia) | GI50 (MCF7 breast) | TGI (MCF7 breast) | GI50 (OVCAR-4 ovarian) | TGI (OVCAR-4 ovarian) | GI50 (COLO 205 colon) | TGI (COLO 205 colon) | GI50 (MDA-MB-435) | TGI (MDA-MB-435) | GI50 (NCI-H460 lung) | TGI (NCI-H460 lung)
COc1cccc(C2=C(c3cn(C)c4ccccc34)C(=O)NC2=O)c1 | 3.09 µM | > 25 µM | 16.5 µM | > 25 µM | 1.32 µM | > 25 µM | 7.93 µM | > 25 µM | 5.91 µM | > 25 µM | 6.35 µM | > 25 µM | 9.61 µM | > 25 µM | 9.92 µM | > 25 µM | 6.38 µM | > 25 µM | 13.7 µM | > 25 µM
O=C1C(Cl)=C(N/N=c2/[nH][nH]/c(=N/NC3=C(Cl)C(=O)c4ccccc4C3=O)c3ccccc23)C(=O)c2ccccc21 | 11.5 µM | 24 µM | 15.6 µM | 31.7 µM | 1.49 µM | 15.3 µM | 3.23 µM | 13.9 µM | 9.97 µM | 59.1 µM | 12.3 µM | 38.4 µM | 12 µM | 28.5 µM | 16.1 µM | 32.9 µM | 17.8 µM | 36.6 µM | 19.7 µM | 49.5 µM
CCN(CC)c1ccc(/C=C/c2cc(C)c3ccccc3n2)cc1 | 2.32 µM | 15.4 µM | 3.2 µM | 9.61 µM | 3.09 µM | 9.4 µM | 0.64 µM | 15 µM | 1.53 µM | 12.1 µM | 2.31 µM | 75.8 µM | 8.37 µM | > 100 µM | 2.14 µM | 5.23 µM | 0.328 µM | 1.9 µM | 3 µM | 11.7 µM
CCc1ccc(NC(=O)Nc2c[nH]c3ccccc23)cc1 | > 46 µM | > 72.8 µM | 3.09 µM | > 40.6 µM | 1.01 µM | > 26.5 µM | 6.89 µM | > 100 µM | 2.2 µM | > 100 µM | 29.3 µM | > 65.5 µM | 10.1 µM | > 54.7 µM | > 38.9 µM | > 54 µM | 22.6 µM | > 49.5 µM | 12.7 µM | > 49.6 µM
CCN=C1C=CC(=C(c2ccc(N(C)C)cc2)c2ccc(N(C)C)cc2)c2ccccc21 | 0.16 µM | 0.453 µM | 0.124 µM | 0.53 µM | 0.0833 µM | 0.332 µM | 0.0557 µM | 2.17 µM | 0.0846 µM | 0.572 µM | 0.141 µM | 1.09 µM | 0.114 µM | 1.6 µM | 0.0508 µM | 0.183 µM | 0.0705 µM | 0.408 µM | 0.0657 µM | 0.572 µM
CCc1ccc(NCc2cc(OC)c(OC)c(OC)c2)cc1 | 2.28 µM and 3.85 µM | 20.6 µM and 49 µM | 0.296 µM and 0.107 µM | 1.02 µM and 0.814 µM | 0.387 µM and 0.882 µM | > 100 µM | 0.111 µM | 26.4 µM and 52.4 µM | – | 44.6 µM and > 100 µM | – | 24.8 µM | – | > 100 µM | 0.251 µM and 0.333 µM | 1.3 µM and 1.47 µM | 0.0232 µM and 0.0172 µM | 45.8 µM and 31.3 µM | 0.268 µM and 0.127 µM | 25.1 µM and 17 µM
Cc1cc(N2CCCCC2)nc(N(CCNc2ccnc3cc(Cl)ccc23)Cc2ccco2)n1 | 1.92 µM | 5.09 µM | 2.05 µM | 4.2 µM | 1.88 µM | 4.33 µM | 1.54 µM | 4.03 µM | 1.77 µM | 4.02 µM | 1.59 µM | 3.19 µM | 1.8 µM | 4.42 µM | 1.49 µM | 3.25 µM | 1.8 µM | 3.52 µM | 1.76 µM | 3.34 µM
N#CSc1ncnc2nc[nH]c12 | 24.1 µM | > 100 µM | 4.14 µM | > 65.9 µM | 7.19 µM | > 100 µM | 1.24 µM | > 100 µM | 4.02 µM | 32.2 µM | 2.35 µM | > 79.4 µM | 2.37 µM | > 100 µM | 5.31 µM | 22 µM | 3.65 µM | > 100 µM | 17.3 µM | > 100 µM
O=C(O)CS(=O)(=O)C(c1ccccc1)c1ccccc1 | – | > 100 µM | – | > 100 µM | – | > 100 µM | – | > 100 µM | – | > 100 µM | – | > 100 µM | – | > 100 µM | – | > 100 µM | – | > 100 µM | – | > 100 µM
CC[C@](C)(O)C(=O)O[C@H]1C(=O)O[C@@H]2C[C@H]3C(C)=CC(=O)[C@@H](O)[C@]3(C)[C@H]3[C@@]4(O)OC[C@]32[C@@H]1[C@@H](C)[C@H]4O | 0.95 µM | 3.36 µM and 1.15 µM | 0.0141 µM | 0.0353 µM and 0.0895 µM | 0.258 µM | 1.02 µM and 0.17 µM | 0.0841 µM | – | – | 2.55 µM | 0.335 µM | – | 0.112 µM | 1.26 µM and 0.923 µM | 1.92 µM | 7.24 µM and 3.35 µM | – | > 24.3 µM | 0.184 µM | 1.12 µM and 0.327 µM
CC12CCC(=O)C=C1CCC1C2CCC2(C)C(C(=O)Cn3cnc4c(=S)nc[nH]c43)CCC12 (stereo not drawn) | – | 79 µM | – | > 100 µM | – | 36.8 µM | – | > 100 µM | – | > 100 µM | – | 36.7 µM | – | 55 µM | – | > 100 µM | – | 96.4 µM | – | > 100 µM
CCOC(=O)Cc1c[nH]c(=S)[nH]c1=O | > 100 µM | > 100 µM | > 100 µM | > 100 µM | > 100 µM | > 100 µM | > 100 µM | > 100 µM | > 100 µM | > 100 µM | > 100 µM | > 100 µM | > 100 µM | > 100 µM | > 100 µM | > 100 µM | > 100 µM | > 100 µM | > 100 µM | > 100 µM
CC1=C(C(=O)OCc2ccccc2)C(c2ccc3c(c2)OCO3)n2c(nc3ccccc32)N1 (stereo not drawn) | 0.362 µM | > 100 µM | 0.34 µM | > 100 µM | 0.215 µM | 0.801 µM | 0.276 µM | > 100 µM | 0.4 µM | > 100 µM | 0.236 µM | > 100 µM | 13.3 µM | > 100 µM | 0.417 µM | > 100 µM | 0.0842 µM | 0.351 µM | 0.369 µM | > 100 µM
